Test results as given in patent US12240816B2, “Deuterated compounds and uses thereof” (Aldeyra Therapeutics, Inc., priority 2015, dated 2025).
Several values for one entry are separate records, joined by “and”; a condition that tells them apart may be missing. Equal values may be shown once. Entries after “also recorded” stand apart in the source; their conditions may differ. Marks after values point to notes of the source that are not given here.

How the values were obtained:
[1] = tested on: rat hippocampal cultures; assay: cells; format: cell-based
[2] = tested on: rat hippocampal cultures; assay: Propidium iodide cell death assay, protection from hydrogen peroxide toxicity; format: cell-based
[3] = tested on: dog hepatocytes
[4] = CFDA, Captisol formulation, 10 μM hydrogen peroxide, 5 h
[5] = CFDA, DMSO formulation, 10 μM hydrogen peroxide, 5 h
[6] = NS2 (CoreRx micro-milled, Captisol) 0.1 μM + 10 μM hydrogen peroxide, 5 h
[7] = NS2 (CoreRx micro-milled, Captisol) 1 μM + 10 μM hydrogen peroxide, 5 h
[8] = NS2 (CoreRx micro-milled, Captisol) 10 μM + 10 μM hydrogen peroxide, 5 h
[9] = NS2 (CoreRx micro-milled, Captisol) 100 μM + 10 μM hydrogen peroxide, 5 h
[10] = NS2 (CoreRx micro-milled, Captisol) 1 mM + 10 μM hydrogen peroxide, 5 h
[11] = NS2 (CoreRx micro-milled, DMSO) 0.1 μM + 10 μM hydrogen peroxide, 5 h
[12] = NS2 (CoreRx micro-milled, DMSO) 1 μM + 10 μM hydrogen peroxide, 5 h
[13] = NS2 (CoreRx micro-milled, DMSO) 10 μM + 10 μM hydrogen peroxide, 5 h
[14] = NS2 (CoreRx micro-milled, DMSO) 100 μM + 10 μM hydrogen peroxide, 5 h
[15] = NS2 (CoreRx micro-milled, DMSO) 1 mM + 10 μM hydrogen peroxide, 5 h
[16] = NS2 (J-Star non-milled, Captisol) 0.1 μM + 10 μM hydrogen peroxide, 5 h
[17] = NS2 (J-Star non-milled, Captisol) 1 μM + 10 μM hydrogen peroxide, 5 h
[18] = NS2 (J-Star non-milled, Captisol) 10 μM + 10 μM hydrogen peroxide, 5 h
[19] = NS2 (J-Star non-milled, Captisol) 100 μM + 10 μM hydrogen peroxide, 5 h
[20] = NS2 (J-Star non-milled, Captisol) 1 mM + 10 μM hydrogen peroxide, 5 h
[21] = NS2 (J-Star non-milled, DMSO) 0.1 μM + 10 μM hydrogen peroxide, 5 h
[22] = NS2 (J-Star non-milled, DMSO) 1 μM + 10 μM hydrogen peroxide, 5 h
[23] = NS2 (J-Star non-milled, DMSO) 10 μM + 10 μM hydrogen peroxide, 5 h
[24] = NS2 (J-Star non-milled, DMSO) 100 μM + 10 μM hydrogen peroxide, 5 h
[25] = NS2 (J-Star non-milled, DMSO) 1 mM + 10 μM hydrogen peroxide, 5 h
[26] = PI, Captisol formulation, 10 μM hydrogen peroxide, 5 h
[27] = PI, DMSO formulation, 10 μM hydrogen peroxide, 5 h

Structure (SMILES): CC(C)(O)c1nc2ccc(Cl)cc2cc1N [NS2, 2-(3-amino-6-chloroquinolin-2-yl)propan-2-ol]
- Full Efficacy Concentration [1, 4]: 100 µM
- No effect Concentration [1, 4]: 1 µM
- EC50 ([1]; CFDA, Captisol formulation, 10 μM hydrogen peroxide, 5 h, listed as CoreRx NS2 (milled), read-out: EC50 ± SE): 7000 ± 4000 nM
- EC50 ([1]; CFDA, Captisol formulation, 10 μM hydrogen peroxide, 5 h, listed as NS2 (J-Star), read-out: EC50 ± SE): 9100 nM
- Full Efficacy Concentration [1, 5]: 100 µM
- No effect Concentration [1, 5]: 1 µM
- EC50 ([1]; CFDA, DMSO formulation, 10 μM hydrogen peroxide, 5 h, values with * are estimates, listed as NS2 (CoreRx), read-out: EC50 ± SE): 9800 nM
- EC50 ([1]; CFDA, DMSO formulation, 10 μM hydrogen peroxide, 5 h, values with * are estimates, listed as NS2 (J-Star), read-out: EC50 ± SE): 2600 nM
- Full protection concentration ([1]; CFDA, both NS2 formulations and both batches): 100 µM
- no effect concentration ([1]; CFDA, both formulations and batches): 1 µM
- % of Control (CFDA) [1, 6]: 58 ± 4%
- CFDA signal, Mean [1, 6]: 26931
- % of Control (CFDA) [1, 7]: 64 ± 6%
- CFDA signal, Mean [1, 7]: 29693
- % of Control (CFDA) [1, 8]: 80 ± 8%
- CFDA signal, Mean [1, 8]: 37577*
- % of Control (CFDA) [1, 9]: 100 ± 6%
- CFDA signal, Mean [1, 9]: 46508*
- % of Control (CFDA) [1, 10]: 92 ± 07%
- CFDA signal, Mean [1, 10]: 42889*
- % of Control (CFDA) [1, 11]: 61 ± 2%
- CFDA signal, Mean [1, 11]: 26314
- % of Control (CFDA) [1, 12]: 62 ± 6%
- CFDA signal, Mean [1, 12]: 26633
- % of Control (CFDA) [1, 13]: 79 ± 3%
- CFDA signal, Mean [1, 13]: 34180*
- CFDA signal, replicate wells [1, 13]: 32661 (3×) and 34496 and 38422
- % of Control (CFDA) [1, 14]: 101 ± 6%
- CFDA signal, Mean [1, 14]: 43328*
- % of Control (CFDA) [1, 15]: 90 ± 3%
- CFDA signal, Mean [1, 15]: 38622*
- % of Control (CFDA) [1, 16]: 60 ± 4%
- CFDA signal, Mean [1, 16]: 24142
- % of Control (CFDA) [1, 17]: 61 ± 3%
- CFDA signal, Mean [1, 17]: 24338
- % of Control (CFDA) [1, 18]: 79± 6%
- CFDA signal, Mean [1, 18]: 31811*
- % of Control (CFDA) [1, 19]: 93 ± 9%
- CFDA signal, Mean [1, 19]: 37544*
- % of Control (CFDA) [1, 20]: 98 ± 3%
- CFDA signal, Mean [1, 20]: 39516*
- % of Control (CFDA) [1, 21]: 60 ± 4%
- CFDA signal, Mean [1, 21]: 24819
- % of Control (CFDA) [1, 22]: 66 ± 6%
- CFDA signal, Mean [1, 22]: 27524
- % of Control (CFDA) [1, 23]: 85 ± 7%
- CFDA signal, Mean [1, 23]: 35341*
- % of Control (CFDA) [1, 24]: 96 ± 10%
- CFDA signal, Mean [1, 24]: 39844*
- % of Control (CFDA) [1, 25]: 88 ± 10%
- CFDA signal, Mean [1, 25]: 36632*
- EC50 ([1]; Rattus norvegicus, 5 h, CFDA, Captisol formulation, 10 μM hydrogen peroxide, 5 h, read-out: EC50 ± SE): 6800 nM
- EC50 ([1]; Rattus norvegicus, CFDA, across formulations and batches, read-out: EC50 range): 3000 to 10000 nM
- % of Control (PI) [2, 6]: 167 ± 10%
- PI signal, Mean [2, 6]: 261
- PI signal, replicate wells [2, 6]: 246 (4×) and 323
- % of Control (PI) [2, 7]: 171 ± 9%
- PI signal, Mean [2, 7]: 266
- PI signal, replicate wells [2, 7]: 246 (2×) and 267 and 319 and 254
- % of Control (PI) [2, 8]: 108 ± 20%
- PI signal, Mean [2, 8]: 169*
- PI signal, replicate wells [2, 8]: 180 (3×) and 57 and 246
- % of Control (PI) [2, 9]: 115 ± 13%
- PI signal, Mean [2, 9]: 180*
- PI signal, replicate wells [2, 9]: 246 and 137 and 144 and 180 and 192
- % of Control (PI) [2, 10]: 130 ± 8%
- PI signal, Mean [2, 10]: 203*
- PI signal, replicate wells [2, 10]: 188 and 217 and 246 and 184 and 180
- % of Control (PI) [2, 11]: 189 ± 9%
- PI signal, Mean [2, 11]: 267
- PI signal, replicate wells [2, 11]: 315 and 259 and 246 and 263 and 254
- % of Control (PI) [2, 12]: 190 ± 9%
- PI signal, Mean [2, 12]: 268
- PI signal, replicate wells [2, 12]: 254 (3×) and 315 and 263
- % of Control (PI) [2, 13]: 115 ± 11%
- PI signal, Mean [2, 13]: 163*
- PI signal, replicate wells [2, 13]: 117 and 137 and 180 and 188 and 192
- % of Control (PI) [2, 14]: 113 ± 11%
- PI signal, Mean [2, 14]: 159*
- PI signal, replicate wells [2, 14]: 192 and 117 and 125 and 180 (2×)
- % of Control (PI) [2, 15]: 138 ± 6%
- PI signal, Mean [2, 15]: 195*
- PI signal, replicate wells [2, 15]: 188 and 180 (2×) and 204 and 221
- % of Control (PI) [2, 16]: 165 ± 22%
- PI signal, Mean [2, 16]: 232
- PI signal, replicate wells [2, 16]: 350 and 180 (2×) and 204 and 246
- % of Control (PI) [2, 17]: 172 ± 24%
- PI signal, Mean [2, 17]: 242
- PI signal, replicate wells [2, 17]: 180 and 192 and 184 and 315 and 337
- % of Control (PI) [2, 18]: 113 ± 12%
- PI signal, Mean [2, 18]: 160*
- PI signal, replicate wells [2, 18]: 180 and 188 and 117 (2×) and 196
- % of Control (PI) [2, 19]: 99 ± 7%
- PI signal, Mean [2, 19]: 139*
- PI signal, replicate wells [2, 19]: 180 and 133 and 129 (2×) and 125
- % of Control (PI) [2, 20]: 120 ± 6%
- PI signal, Mean [2, 20]: 169*
- PI signal, replicate wells [2, 20]: 180 (3×) and 133 and 172
- % of Control (PI) [2, 21]: 175 ± 17%
- PI signal, Mean [2, 21]: 275
- PI signal, replicate wells [2, 21]: 350 and 259 and 246 and 315 and 204
- % of Control (PI) [2, 22]: 143 ± 9%
- PI signal, Mean [2, 22]: 225
- PI signal, replicate wells [2, 22]: 188 and 250 and 246 (2×) and 196
- % of Control (PI) [2, 23]: 115 ± 2%
- PI signal, Mean [2, 23]: 181*
- PI signal, replicate wells [2, 23]: 180 (3×) and 192 and 172
- % of Control (PI) [2, 24]: 111 ± 18%
- PI signal, Mean [2, 24]: 175*
- PI signal, replicate wells [2, 24]: 246 (2×) and 133 and 125 (2×)
- % of Control (PI) [2, 25]: 113 ± 15%
- PI signal, Mean [2, 25]: 177*
- PI signal, replicate wells [2, 25]: 117 and 250 and 180 and 204 and 133
- Full Efficacy Concentration [2, 26]: 10 µM
- No effect Concentration [2, 26]: 1 µM
- EC50 ([2]; PI, Captisol formulation, 10 μM hydrogen peroxide, 5 h, values with * are estimates, listed as NS2 (J-Star), read-out: EC50 ± SE): 2800 nM
- Full Efficacy Concentration [2, 27]: 10 µM
- No effect Concentration [2, 27]: 1 µM
- EC50 ([2]; PI, DMSO formulation, 10 μM hydrogen peroxide, 5 h, values with * are estimates, listed as NS2 (J-Star), read-out: EC50 ± SE): 1100 nM
- Full protection concentration ([2]; PI, both NS2 formulations and both batches): 10 µM
- no effect concentration ([2]; PI, both formulations and batches): 1 µM
- EC50 ([2]; Rattus norvegicus, 5 h, PI, DMSO formulation, 10 μM hydrogen peroxide, 5 h, values with * are estimates, read-out: EC50 ± SE): 1300 nM
- EC50 ([2]; Rattus norvegicus, PI, across formulations and batches, read-out: EC50 range): 1100 to 2800 nM
- EC50 ([2]; Rattus norvegicus, PI, best available estimate, read-out: EC50, mean value for all PI data): 2000 ± 1000 nM
- metabolite profile ([3]; NS2, 120 min, dog hepatocytes): metabolized to M1, M2, M5, and M6, with some unchanged NS2 remaining; also recorded: two different mono-oxidation products (M1 and M2) and two different glutathione (GSH) conjugates (M5 and M6)
- Peak Areas Dog ([3]; dog, 120 min, 3 μM): 4.79E+07
